The text below walks through data of US20050101623A1 (Pharmacia Corporation, priority 2003, published 2005).

For experiment [1], the target named is Recombinant MAPKAPK2 (MK-2) (Homo sapiens, UniProt P49137). As to the kind of experiment: Determination of MK-2 IC50 (phosphorylation of HSP-peptide, anion exchange resin capture assay). The format is biochemical.
Experiment [2] deals with TNFα release, U937 cells. As to the kind of experiment: U937 Cell TNFα Release Assay (LPS, ELISA). The note with it: additional values are replicate IC50 experiments. In kind it is cell-based, human. The protocol: U937 Cell TNFα Release Assay
Differentiation of U937 to monocytic/macrophage-like cells is induced by the addition of phorbol12-myristate 13-acetate (Sigma) at final concentration of 20 ng/ml to a culture of U937 cells at ˜0.5 million cells/ml and incubated for 24 hrs. The cells are centrifuged, washed with PBS and resuspended in fresh media without PMA and incubated for 24 hrs. Cells adherent to the culture flask are harvested by scraping, centrifugation, and resuspended in fresh media to 2 million cells/ml, and 0.2 ml is aliquoted to each of 96 wells in flat-bottom plate. Cells are then incubated for an additional 24 hrs to allow for recovery. The media is removed from the cells, and 0.1 ml of fresh media is added per well. 0.05 ml of serially diluted compound or control vehicle (Media with DMSO) is added to the cells. […] Cells are incubated at 37° C. for 4 hrs. After 4 hrs incubation, supernatants are harvest and assayed by ELISA for the presence of TNFα.
Coating solution was aspirated the following day and wells were blocked with 1 mg/ml gelatin in PBS (plus 1× thimerasol) for 2 days at 4° C. Prior to using, wells were washed 3× with wash buffer (PBS with 0.05% Tween). Cultured media samples were diluted in EIA buffer (5 mg/ml bovine γ-globulin, 1 mg/ml gelatin, 1 ml/l Tween-20, 1 mg/ml thimerasol in PBS), added to wells (0.1 ml/well) in triplicate and allowed to incubate for 1.5 hr at 37° C. in a humidified chamber. […] TNF levels were quantitated from a recombinant human TNFα (R&D Systems #210-TA-010) standard curve using a quadratic parameter fit generated by SoftMaxPRO software. ELISA sensitivity was approximately 30 pg TNF/ml. IC50 values for compounds were generated using BioAssay Solver.
A general note: In an ELISA, binding on a coated surface is turned into a signal by an enzyme label.

Experiment [3] relates to endotoxin-induced shock. The conditions noted are these: murine model of endotoxin-induced shock; cited from earlier work.
In experiment [4] the test system is adjuvant arthritis. The note with it: rat; cited from earlier work.
Experiment [5] deals with MK-2. The conditions noted are these: cited from earlier work.
The test system of experiment [6] is collagen-induced arthritis. The note with it: mouse; cited from earlier work.
Where [7] appears, read: MK-2 Avg. IC50, additional values are replicate IC50 experiments.
The mark [8] stands for this setting: Homo sapiens, U-937, 4 h, read-out: TNF Release Assay Avg. IC50, LPS 100 ng/ml, 4 hrs, differentiated U937 cells.
Where [9] appears, read: additional values are replicate IC50 experiments, read-out: MK-2 Avg. IC50.
[10] abbreviates: Homo sapiens, U-937, 4 h, LPS 100 ng/ml, 4 hrs, differentiated U937 cells, read-out: TNF Release Assay Avg. IC50.

pIC50: −log10 of the molar value. “And” between values parts separate entries of the source, which are not always exact repeats. Equal values may be shown once. Where a name gives a salt, the structure may show the parent alone. Read-outs that look alike come from different tables or passages of the source. Where only a bound is given, the exact number is not on record here.

Chain of Recombinant MAPKAPK2 (MK-2) (P49137 whole entry, species assumed): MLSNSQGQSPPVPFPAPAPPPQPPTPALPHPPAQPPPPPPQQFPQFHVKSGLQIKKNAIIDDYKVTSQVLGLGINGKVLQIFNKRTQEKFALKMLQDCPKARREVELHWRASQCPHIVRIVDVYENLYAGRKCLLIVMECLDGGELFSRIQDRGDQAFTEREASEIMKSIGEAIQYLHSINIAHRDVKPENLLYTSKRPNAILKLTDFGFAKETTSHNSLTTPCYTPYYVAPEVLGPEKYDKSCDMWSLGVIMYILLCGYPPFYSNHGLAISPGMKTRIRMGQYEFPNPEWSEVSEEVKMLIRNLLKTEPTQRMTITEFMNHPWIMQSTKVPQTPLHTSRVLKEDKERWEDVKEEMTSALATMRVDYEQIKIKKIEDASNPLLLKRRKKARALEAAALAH

Consider `COCCOC(=O)C1c2[nH]c3ccc(OC)cc3c2C2CCN1C2` (centres unmarked), for which the pIC50 in experiment [1] (setting [7]) was 5.33 and 5.30; in experiment [2] (read-out: TNF Release Assay Avg. IC50, LPS 100 ng/ml, 4 hrs, differentiated U937 cells, listed as 15), 5.45.

For `COc1ccc2[nH]c3c(c2c1)C1CCN(C1)C3C(=O)OCCO` (centres unmarked), the pIC50 in experiment [1] (setting [7]) was 5.25; in experiment [2] (setting [8]), less than 4.00.

As to `COc1ccc2[nH]c3c(c2c1)C1CCN(C1)C3C(=O)OCCSC` (centres unmarked), the pIC50 in experiment [1] (setting [7]) is 5.36.

On to `CSc1ccc2[nH]c3c(c2c1)C1CCN(C1)C3C(=O)O` (centres unmarked) [No. 4, 7-(methylthio)-3,4,5,10-tetrahydro-1H-2,5-methanoazepino[3,4-b]indole-1-carboxylic acid], for which, in experiment [2] (LPS 100 ng/ml, 4 hrs, differentiated U937 cells, read-out: TNF Release Assay Avg. IC50), the pIC50 was less than 4.00.

For `COc1ccc2[nH]c3c(c2c1)C1CCN(C1)C3C(=O)OCC1CCCCC1` (centres unmarked) [No. 15, hydrochloride], the pIC50 in experiment [1] (setting [9]) was 4.41.

As to `C[S+]([O-])c1ccc(-c2nc(-c3ccncc3)c(-c3ccc(F)cc3)[nH]2)cc1` (centres unmarked) [SB203580], the mortality result in experiment [3] is “reduce mortality”. For the same molecule, the “development of adjuvant arthritis” value in experiment [4] was “inhibit the development”. Also, in experiment [5], the “inhibition of activation of MK-2” value was “inhibit activation”. The “development of collagen-induced arthritis” value in experiment [6] is “inhibit the development”.

Regarding `COc1ccc2[nH]c3c(c2c1)C1CCN(C1)C3C(=O)OC(C)(C)C` (centres unmarked) [compound 41, tert-butyl 7-methoxy-3,4,5,10-tetrahydro-1H-2,5-methanoazepino[3,4-b]indole-1-carboxylate], the pIC50 in experiment [1] (setting [9]) was 3.95; in experiment [2] (setting [8]), less than 4.00.

`COc1ccc2[nH]c3c(c2c1)C1CCN(C1)C3C(=O)OC12CC3CC(CC(C3)C1)C2` (centres unmarked) [compound 42]: the pIC50 in experiment [2] (setting [8]) is 4.37.

Consider `CNC(=O)C1c2[nH]c3ccc(OC)cc3c2C2CCN1C2` (centres unmarked) [compound 44, 7-methoxy-N-methyl-3,4,5,10-tetrahydro-1H-2,5-methanoazepino[3,4-b]indole-1-carboxamide], for which the pIC50 in experiment [2] (setting [10]) was less than 4.00.

In the case of `COc1ccc2[nH]c3c(c2c1)C1CCN(C1)C3C(=O)NCc1ccccc1` (centres unmarked) [compound 45, N-benzyl-7-methoxy-3,4,5,10-tetrahydro-1H-2,5-methanoazepino[3,4-b]indole-1-carboxamide hydrochloride], the pIC50 in experiment [1] (setting [7]) is less than 3.70.

For the molecule `COc1ccc2[nH]c3c(c2c1)C1CCN(C1)C3C(=O)N(C)C` (centres unmarked) [compound 46, 7-methoxy-N,N-dimethyl-3,4,5,10-tetrahydro-1H-2,5-methanoazepino[3,4-b]indole-1-carboxamide], the pIC50 is less than 3.70 in experiment [1] (setting [7]) and less than 4.00 in experiment [2] (setting [10]).

As to `O=C(OCc1ccccc1)C1c2[nH]c3ccc(OCc4ccccc4)cc3c2C2CCN1C2` (centres unmarked) [compound 47, benzyl 7-(benzyloxy)-3,4,5,10-tetrahydro-1H-2,5-methanoazepino[3,4-b]indole-1-carboxylate trifluoroacetate], the figures for the pIC50 in experiment [1] (setting [9]) and in experiment [2] (setting [10]) were less than 3.70 and 4.12, respectively.

Consider `COc1ccc2[nH]c3c(c2c1)C1CCN(C1)C3C(N)=O` (centres unmarked) [compound 48, 7-methoxy-3,4,5,10-tetrahydro-1H-2,5-methanoazepino[3,4-b]indole-1-carboxamide], for which the values for the pIC50 in experiment [1] (setting [7]) and in experiment [2] (setting [10]) were less than 3.70 and less than 4.00, respectively.

With `COCCNC(=O)C1c2[nH]c3ccc(OC)cc3c2C2CCN1C2` (centres unmarked) [compound 49, 7-methoxy-N-(2-methoxyethyl)-3,4,5,10-tetrahydro-1H-2,5-methanoazepino[3,4-b]indole-1-carboxamide], in experiment [2] (setting [10]), the pIC50 was less than 4.00.

Regarding `COc1ccc2[nH]c3c(c2c1)C1CCN(C1)C3c1ccc[nH]1` (centres unmarked) [compound 50, 7-methoxy-1-(1H-pyrrol-2-yl)-3,4,5,10-tetrahydro-1H-2,5-methanoazepino[3,4-b]indole trifluoroacetate], the pIC50 in experiment [1] (setting [9]) was less than 3.70.

As for `COc1ccc2[nH]c3c(c2c1)C1CCN(C1)C3C(=O)OC1CCCCC1` (centres unmarked) [hydrochloride], the pIC50 in experiment [2] (read-out: TNF Release Assay Avg. IC50, LPS 100 ng/ml, 4 hrs, differentiated U937 cells, listed as 38, hydrochloride) is 4.23.

For `COc1ccc2[nH]c3c(c2c1)C1CCN(C1)C3C(=O)OCC(C)(C)C` (centres unmarked) [hydrochloride], in experiment [1] (setting [7]), the pIC50 is 4.69.

Regarding `CCCCCCOC(=O)C1c2[nH]c3ccc(OC)cc3c2C2CCN1C2` (centres unmarked) [trifluoroacetate], the pIC50 in experiment [1] (setting [7]) is 4.53.

As for `COCCOC(=O)C1c2[nH]c3ccc(O)cc3c2C2CCN1C2` (centres unmarked) [trifluoroacetate], the pIC50 in experiment [1] (setting [7]) is 5.16.

In the case of `COCCOC(=O)C1c2[nH]c3ccc(OC)cc3c2C2CCN1C2` (centres unmarked) [trifluoroacetate], the pIC50 in experiment [1] (setting [7]) is 5.19.

For the molecule `COc1ccc2[nH]c3c(c2c1)C1CCN(C1)C3C(=O)N(C)OC` (centres unmarked) [trifluoroacetate], the pIC50 in experiment [1] (setting [7]) is 4.04 and 4.01.

With `COc1ccc2[nH]c3c(c2c1)C1CCN(C1)C3C(=O)OC1CCCCC1` (centres unmarked) [trifluoroacetate], the pIC50 is 4.34 in experiment [1] (setting [7]) and 4.30 in experiment [2] (read-out: TNF Release Assay Avg. IC50, LPS 100 ng/ml, 4 hrs, differentiated U937 cells, listed as 37, trifluoroacetate).
